Where two headings read alike, the source gives them in different places.

What all share (type): cell-based
The test system of assay [1] is MCF-7 (estrogen receptor positive breast cancer cells). The experiment in a line: Anti-proliferation activity against MCF-7 cells (MTS/PMS). Summed up: (§1)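 Viability after 72 h compound treatment (1% DMSO final, 37° C., 5% CO2) measured by MTS/PMS; plating density 2000 cells/well with overnight attachment.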
Assay [2] relates to A549 (human alveolar basal epithelial cells). Description: Anti-proliferation activity against A549 cells (MTS/PMS). On the procedure: (§2) Cells were maintained in a 1:1 mixture of Advanced DMEM/F12 (Gibco) supplemented with non-essential amino acids, L-glutamine (2 mM), streptomycin (500 μg/mL), penicillin (100 units/mL), and 10% FBS. Cells were grown to confluence in a humidified atmosphere (37° C., 5% CO2), seeded (2000/well, 100 μL) in 96-well plates, and allowed to attach overnight. Compound or GDA at varying concentrations in DMSO (1% DMSO final concentration) was added, and cells were returned to the incubator for 72 hours. At 72 hours, the number of viable cells was determined using an MTS/PMS cell proliferation kit (Promega) per the manufacturer's instructions. Cells incubated in 1% DMSO were used at 100% proliferation, and values were adjusted accordingly. IC50 values were calculated from separate experiments performed in triplicate using GraphPad Prism.

Assay [3] deals with SkBr3 (Her2 overexpressing breast cancer cells). The experiment in a line: Anti-proliferation activity against SkBr3 cells (MTS/PMS). In a few lines:
as §1

Assay [4] has as its system MM2 (metastatic mammary tumor cancer cells). Description: Anti-proliferation activity against MM2 cells (MTS/PMS). On the procedure: as §2
For assay [5], the system named is LN3 (metastatic human prostate cancer cells). The experiment in a line: Anti-proliferation activity against LN3 cells (MTS/PMS). On the procedure: as §2
The subject of assay [6] is PL45 (pancreatic cancer cells). The experiment in a line: Anti-proliferation activity against PL45 cells. To be noted: Table 2, n = 3.
Assay [7] relates to LNCaP (androgen sensitive prostate cancer cells). Description: Anti-proliferation activity against LNCaP cells. To be noted: Homo sapiens, LNCaP; Table 2; n = 3; read-out: IC50 LNCaP. In a few lines: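 Cells seeded at 2000/well in Advanced DMEM/F12 with 10% FBS and attached overnight, then given compound in 1% DMSO final for 72 h at 37 °C, 5% CO2. Viable cells by MTS/PMS read-out, normalised to 1% DMSO as 100% proliferation. IC50 from separate triplicate experiments.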

The test system of assay [8] is PC-3 (androgen independent prostate cancer cells). Description: Anti-proliferation activity against PC-3 cells. To be noted: Homo sapiens, PC-3; Table 2; n = 3; read-out: IC50 PC-3. In a few lines:
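Antiproliferative activity was tested in PC-3 androgen-independent prostate cancer cells. Cells grown at 37° C. with 5% CO2 in Advanced DMEM/F12 (1:1) containing non-essential amino acids, 2 mM L-glutamine, streptomycin, penicillin and 10% FBS were plated at 2000/well in 96-well plates. Proliferation was normalized to 1% DMSO controls, and IC50 values from triplicate experiments were fitted in GraphPad Prism.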

Assay [9] deals with HCT-116 (colon cancer cells characterized by wild-type p53). Description: Anti-proliferation activity against HCT-116 cells. To be noted: Homo sapiens, Table 2, n = 3.
Where [10] appears, read: Table 8, unsaturated azasugar analogues, 72 hours.
The mark [11] stands for this setting: Table 9, azasugar analogues on 8-methyl coumarin, 72 hours, read-out: IC50 MCF-7.
Where [12] appears, read: Table 9, azasugar analogues on 8-methyl coumarin, 72 hours.
[13] abbreviates: Table 9, azasugar analogues on 8-methyl coumarin, 72 hours, read-out: IC50 SKBr3.
Where [14] appears, read: Homo sapiens, MCF7, Table 10, azasugar analogues on 6-methoxy coumarin, 72 hours, read-out: IC50 MCF-7.
Where [15] appears, read: Homo sapiens, A549, Table 10, azasugar analogues on 6-methoxy coumarin, 72 hours.
Where [16] appears, read: Homo sapiens, SK-BR-3, Table 10, azasugar analogues on 6-methoxy coumarin, 72 hours, read-out: IC50 SKBr3.
Setting [17] is: Table 10, azasugar analogues on 6-methoxy coumarin, 72 hours.
The mark [18] stands for this setting: Homo sapiens, Table 10, azasugar analogues on 6-methoxy coumarin, 72 hours.
Setting [19] is: Homo sapiens, MCF7, Table 12, aliphatic chain analogues, 72 hours, read-out: IC50 MCF-7.
The mark [20] stands for this setting: Homo sapiens, A549, Table 12, aliphatic chain analogues, 72 hours.
The mark [21] stands for this setting: Homo sapiens, SK-BR-3, Table 12, aliphatic chain analogues, 72 hours, read-out: IC50 SKBr3.
[22] abbreviates: Table 12, aliphatic chain analogues, 72 hours.
Where [23] appears, read: Homo sapiens, Table 12, aliphatic chain analogues, 72 hours.
The mark [24] stands for this setting: Homo sapiens, MCF7, Table 20, indole-2-carboxamide analogues with noviose replacements, read-out: IC50, MCF-7.
The mark [25] stands for this setting: Homo sapiens, A549, Table 20, indole-2-carboxamide analogues with noviose replacements.
Where [26] appears, read: Homo sapiens, SK-BR-3, Table 20, indole-2-carboxamide analogues with noviose replacements, read-out: IC50, SKBr3.
Setting [27] is: Table 20, indole-2-carboxamide analogues with noviose replacements.
Where [28] appears, read: Homo sapiens, Table 20, indole-2-carboxamide analogues with noviose replacements.
Where [29] appears, read: Table 13, various sugars on 8-methyl coumarin, 72 hours.

Regarding `CO[C@@H]1[C@@H](O)[C@@H](O)[C@H](Oc2ccc3cc(NC(=O)c4ccccc4N)c(=O)oc3c2C)OC1(C)C` [18 KU-260], the concentration for half-maximal inhibition (IC50) in [1] (Table 8, unsaturated azasugar analogues, 72 hours, read-out: IC50 MCF-7) worked out at 1.73 µM; in assay [2] (setting [10]), 1.42 µM; in [3] (Table 8, unsaturated azasugar analogues, 72 hours, read-out: IC50 SKBr3) it was 1.61 ± 0.1 µM; in [4] (setting [10]) it was 4.36 µM; in [5] (setting [10]) it was 4.23 µM.
Regarding `CO[C@@H]1[C@@H](O)[C@@H](O)[C@H](Oc2ccc3cc(NC(=O)OCc4ccccc4)c(=O)oc3c2C)OC1(C)C` [24, KU-249], the IC50 in assay [1] (setting [11]) was determined as 2.07 ± 1.1 µM; in assay [2] (setting [12]) it was 4.07 µM; in assay [3] (setting [13]) it was 2.91 ± 1.1 µM; in [4] (setting [12]) it was 7.75 µM; in [5] (setting [12]), 6.73 µM.
Take `CO[C@@H]1[C@@H](O)[C@@H](O)[C@H](Oc2ccc3cc(NC(=O)C=Cc4ccccc4)c(=O)oc3c2C)OC1(C)C` [25, KU-254]: the IC50 in [1] (setting [11]) was greater than 50 µM; in [3] (setting [13]), greater than 50 µM; in assay [4] (setting [12]) it was 3.42 µM; in [5] (setting [12]), 0.23 µM.
`COc1ccc(C(=O)Nc2cc3ccc(O[C@@H]4OC(C)(C)[C@H](OC)[C@@H](O)[C@H]4O)c(C)c3oc2=O)cc1-c1ccccc1` [28, KU-252]: the IC50 in [1] (setting [11]) came to 29.4 ± 8.4 µM; in assay [3] (setting [13]), 5.41 ± 0.8 µM; in assay [4] (setting [12]), 2.99 µM; in assay [5] (setting [12]) it was 0.35 µM.
As for `COc1cccc(-c2cc(C(=O)Nc3cc4ccc(OC5CCN(C)CC5)c(OC)c4oc3=O)ccc2OC)c1` [KU-275], the IC50 in [1] (Homo sapiens, MCF7, Table 11, azasugar analogues on 8-methoxy coumarin, 72 hours, read-out: IC50 MCF-7) turned out to be 1.39 ± 0.35 µM; in assay [2] (Homo sapiens, A549, Table 11, azasugar analogues on 8-methoxy coumarin, 72 hours), 3.06 µM; in assay [3] (Homo sapiens, SK-BR-3, Table 11, azasugar analogues on 8-methoxy coumarin, 72 hours, read-out: IC50 SKBr3), 0.97 ± 0.09 µM; in assay [4] (Table 11, azasugar analogues on 8-methoxy coumarin, 72 hours) it was 3.71 µM; in assay [5] (Homo sapiens, Table 11, azasugar analogues on 8-methoxy coumarin, 72 hours), 4.75 µM.
Consider `COc1cccc(-c2cc(C(=O)Nc3cc4cc(OC)c(OC5CCCN(C)C5)c(C)c4oc3=O)ccc2OC)c1` (stereo not drawn) [KU-281], for which the half-maximal inhibitory concentration (IC50) was determined as 1.41 ± 0.16 µM in assay [1] (setting [14]); 3.19 µM in assay [2] (setting [15]); 1.49 ± 0.07 µM in [3] (setting [16]); 4.47 µM in assay [4] (setting [17]); 6.63 µM in [5] (setting [18]).
Consider `COc1cccc(-c2cc(C(=O)Nc3cc4cc(OC)c(OC5CCNCC5)c(C)c4oc3=O)ccc2OC)c1` [KU-286], for which the half-inhibitory concentration (IC50) worked out at 2.82 ± 1.38 µM in [1] (setting [14]); 3.5 µM in assay [2] (setting [15]); 1.2 ± 0.1 µM in assay [3] (setting [16]); 4.02 µM in [4] (setting [17]); 5.27 µM in assay [5] (setting [18]).
As for `COc1cccc(-c2cc(C(=O)Nc3cc4cc(OC)c(OC5CCN(C)CC5)c(C)c4oc3=O)ccc2OC)c1` [KU-287], the IC50 in assay [1] (setting [14]) was found to be 1.79 ± 0.11 µM; in [2] (setting [15]) it was 1.99 µM; in [3] (setting [16]), 1.19 ± 0.21 µM; in assay [4] (setting [17]) it was 2.84 µM; in assay [5] (setting [18]), 4.07 µM.
In the case of `COc1cccc(-c2cc(C(=O)Nc3cc4ccc(OCCN(C)C)c(OC)c4oc3=O)ccc2OC)c1` [KU-292], the concentration for half-maximal inhibition (IC50) in [1] (setting [19]) was 3.08 ± 0.12 µM; in [2] (setting [20]) it was 8.8 µM; in [3] (setting [21]), 1.77 ± 0.15 µM; in assay [4] (setting [22]) it was 6.2 µM; in [5] (setting [23]) it was 5.22 µM.
Take `COc1cccc(-c2cc(C(=O)Nc3cc4cc(OC)c(OCCN(C)C)c(C)c4oc3=O)ccc2OC)c1` [KU-294]: the 50% inhibitory concentration (IC50) in assay [1] (setting [19]) worked out at 1.29 ± 0.21 µM; in assay [2] (setting [20]), 2.21 µM; in [3] (setting [21]), 1.42 ± 0.26 µM; in assay [4] (setting [22]), 4.87 µM; in assay [5] (setting [23]), 4.71 µM.
Regarding `COc1cccc(-c2cc(C(=O)Nc3cc4ccc(OCCCN(C)C)c(C)c4oc3=O)ccc2OC)c1` [KU-317], the IC50 in [1] (setting [19]) stood at 0.5 ± 0.04 µM; in assay [2] (setting [20]) it was 13.1 µM; in assay [3] (setting [21]), 0.6 ± 0.01 µM; in [4] (setting [22]) it was 12.8 µM; in assay [5] (setting [23]) it was 37.5 µM.
Consider `COc1cccc(-c2cc(C(=O)Nc3cc4ccc(OCCCN(C)C)c(OC)c4oc3=O)ccc2OC)c1` [KU-319], for which the concentration for half-maximal inhibition (IC50) in assay [1] (setting [19]) is 1.53 ± 0.18 µM; in assay [2] (setting [20]) it was 3.43 µM; in [3] (setting [21]), 0.91 ± 0.17 µM; in assay [4] (setting [22]), 4.08 µM; in [5] (setting [23]), 8.03 µM.
`Cc1c(OC2CCN(C)CC2)ccc2cc(NC(=O)c3cc4ccccc4[nH]3)c(=O)oc12` [KU-361]: the IC50 is 0.57 ± 0.04 µM in assay [1] (setting [24]); 3.91 µM in [2] (setting [25]); 0.48 ± 0.11 µM in [3] (setting [26]); 11.4 ± 6.56 µM in [4] (setting [27]); 11.8 ± 0.68 µM in assay [5] (setting [28]).
The matching figures for `COc1cc2cc(NC(=O)c3cc4ccccc4[nH]3)c(=O)oc2c(C)c1OC1CCN(C)CC1` [KU-363]: 0.52 ± 0.05 µM, 0.59 µM, 0.11 ± 0.01 µM, 0.87 ± 0.57 µM and 1.47 ± 0.66 µM.
As to `COc1cc2cc(NC(=O)c3cc4ccccc4[nH]3)c(=O)oc2c(C)c1OC1CCCN(C)C1` (stereo not drawn) [KU-366], the concentration for half-maximal inhibition (IC50) is 0.69 ± 0.12 µM in assay [1] (setting [24]); greater than 100 µM in assay [2] (setting [25]); 0.15 ± 0.06 µM in assay [3] (setting [26]); 42.8 µM in [4] (setting [27]); 14.8 µM in [5] (setting [28]).
Regarding `CO[C@@H]1[C@@H](O)[C@@H](O)[C@H](Oc2ccc3cc(NC(=O)c4cccc(N)c4)c(=O)oc3c2C)OC1(C)C` [compound 19, 3-Amino-N-(7-((2R,3R,4S,5R)-3,4-dihydroxy-5-methoxy-6,6-dimethyltetrahydro-2H-pyran-2-yloxy)-8-methyl-2-oxo-2H-chromen-3-yl)benzamide], the IC50 in assay [1] (Homo sapiens, MCF7, Table 2, n = 3, read-out: IC50 MCF-7) was 30.1 ± 3.4 µM; in assay [1] (Table 13, various sugars on 8-methyl coumarin, 72 hours, read-out: IC50 MCF7), 37.2 ± 2.1 µM; in assay [2] (setting [29]), greater than 100 µM; in assay [3] (Homo sapiens, SK-BR-3, Table 2, n = 3, read-out: IC50 SkBr3), 61.4 ± 4.7 µM; in [3] (Table 13, various sugars on 8-methyl coumarin, 72 hours, read-out: IC50 SKBr3), 12.5 ± 0.7 µM; in [6], 12.5 ± 0.9 µM. Besides, the 50% inhibitory concentration (IC50) in assay [7] was found to be 24.8 ± 9.7 µM; in assay [4] (setting [29]) it was 30.6 µM; in [8], 14.7 ± 2.6 µM; in [9], 21.2 ± 2.2 µM; in assay [5] (setting [29]), 3.65 µM.

The values above are taken from patent US9120774B2 (University of Kansas, priority 2009, dated 2015).
